Data taken from US6737383B1, “Herbicidal oxadiazolidines” (priority 1999, dated 2004).

How the values were obtained:
duck salad = assay: Test B flood test duck salad; format: in vivo, Heteranthera limosa; conditions: for Plant response rating, Ducksalad (0 to 10 scale, 0 is no effect, 10 is complete control): Rate 62 g/ha; for Plant response rating, Ducksalad (0 to 10 scale, 0 is no effect, 10 is complete control) / Ducksalad plant response rating (0 to 10 scale, 0 is no effect, 10 is complete control): visual evaluation after twelve to sixteen days; for Ducksalad plant response rating (0 to 10 scale, 0 is no effect, 10 is complete control): Rate 125 g/ha, under heading Pre-emergence
How it was run: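 Plants were grown to the 2-leaf stage before treatment with test chemical, then held in a greenhouse for twelve to sixteen days. Injury was visually rated against untreated controls on a 0–10 scale, where 0 is no effect and 10 is complete control.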

rape = assay: Test B pre/postemergence rape; format: in vivo, Brassica napus; conditions: for Plant response rating, Rape: scale of 0 to 10 where 0 is no effect and 10 is complete control
How it was run: (§1)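 Herbicidal effect was estimated by eye on a ten-point control scale after plants spent twelve to sixteen days in a greenhouse following soil or foliar treatment. Foliar sprays targeted plants at one to four leaves; all doses were formulated in a non-phytotoxic solvent with surfactant.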

wheat = assay: Test B pre/postemergence wheat; format: in vivo, Triticum aestivum; conditions: for Plant response rating, Wheat: scale of 0 to 10 where 0 is no effect and 10 is complete control
How it was run: as §1

morningglory = assay: Test B pre/postemergence morningglory; format: in vivo, Ipomoea hederacea; conditions: for Plant response rating, Morningglory: scale of 0 to 10 where 0 is no effect and 10 is complete control
How it was run: as §1

[1] = flood test species, Pre-emergence
[2] = Rate 250 g/ha, Pre-emergence (flood test species), scale 0 to 10, 0 is no effect, 10 is complete control
[3] = Rate 500 g/ha, Pre-emergence, flood test species, scale 0 to 10 (0 no effect, 10 complete control)
[4] = Postemergence, Rate 250 g/ha, scale 0 to 10
[5] = Preemergence, Rate 250 g/ha, scale 0 to 10, 0 is no effect, 10 is complete control
[6] = Preemergence, Rate 500 g/ha, scale 0 to 10, 0 is no effect, 10 is complete control
[7] = Rate 62 g/ha, Postemergence, scale 0 to 10 (0 no effect, 10 complete control)
[8] = Rate 125 g/ha, Postemergence, scale 0 to 10, 0 is no effect, 10 is complete control

| Structure (SMILES) | Plant response rating, Ducksalad (0 to 10 scale, 0 is no effect, 10 is complete control) (duck salad; [1]) | Ducksalad plant response rating (0 to 10 scale, 0 is no effect, 10 is complete control) (duck salad; flood test species) | Ducksalad plant response rating (duck salad; [2]) | Ducksalad plant response rating (duck salad; [3]) | Rape plant response rating (rape; [4]) | Plant response rating, Rape (rape; Preemergence, Rate 62 g/ha) | Plant response rating, Rape (rape; Preemergence, Rate 125 g/ha) | Rape plant response rating (rape; [5]) | Rape plant response rating (rape; [6]) | Rape plant response rating (rape; [7]) | Rape plant response rating (rape; [8]) | Wheat plant response rating (wheat; [4]) | Plant response rating, Wheat (wheat; Preemergence, Rate 62 g/ha) | Plant response rating, Wheat (wheat; Preemergence, Rate 125 g/ha) | Wheat plant response rating (wheat; [5]) | Wheat plant response rating (wheat; [6]) | Wheat plant response rating (wheat; [7]) | Wheat plant response rating (wheat; [8]) | Morningglory plant response rating (morningglory; [4]) | Plant response rating, Morningglory (morningglory; Preemergence, Rate 62 g/ha) | further results |
| --- | --- | --- | --- | --- | --- | --- | --- | --- | --- | --- | --- | --- | --- | --- | --- | --- | --- | --- | --- | --- | --- |
| CC(C)N(C(=O)n1oc(=O)n(CCCl)c1=O)c1ccccc1 [Compound 469] | 0 | 0 | 0 | 0 | 0 | 0 | 2 | 10 | 10 | 0 | 0 | 3 | 0 | 2 | 3 | 6 | 0 | 0 | 10 | 0 | Plant response rating, Morningglory (morningglory; Preemergence, Rate 125 g/ha): 0; Morningglory plant response rating (morningglory; [5]): 0; Morningglory plant response rating (morningglory; [6]): 1; Morningglory plant response rating (morningglory; [7]): 9; Morningglory plant response rating (morningglory; [8]): 9 |
| CC(C)N(C(=O)n1oc(=O)n(CO)c1=O)c1ccc(F)cc1 [Compound 470] | 0 | 0 | 0 | 0 | 0 | 0 | 0 | 0 | 0 | 0 | 0 | 0 | 0 | 0 | 0 | 0 | 0 | 0 | 0 | 0 | Plant response rating, Morningglory (morningglory; Preemergence, Rate 125 g/ha): 0; Morningglory plant response rating (morningglory; [5]): 0; Morningglory plant response rating (morningglory; [6]): 0; Morningglory plant response rating (morningglory; [7]): 0; Morningglory plant response rating (morningglory; [8]): 0 |
| CC(C)N(C(=O)n1oc(=O)n(CC(=O)N(C)C)c1=O)c1ccc(Cl)cc1 [Compound 477] | 0 | 0 | 0 | 0 | 1 | 0 | 0 | 0 | 2 | 0 | 0 | 0 | 0 | 0 | 0 | 0 | 0 | 0 | 10 | 0 | Plant response rating, Morningglory (morningglory; Preemergence, Rate 125 g/ha): 0; Morningglory plant response rating (morningglory; [5]): 0; Morningglory plant response rating (morningglory; [6]): 0; Morningglory plant response rating (morningglory; [7]): 6; Morningglory plant response rating (morningglory; [8]): 7 |
